Assay [1] relates to H-DNA 1 (DNA, aptamer) GCGGGCGGTTGTATAGCGGTTTTTTCTCACACGAATTCATCTGAC
Description: competitive fluorescent lateral flow strip. Particulars: for Cross-reactivity: T-DNA competes, [AMP] at IC50/[M] at IC50, AMP = 100.

Assay [2] has as its system H-DNA 1' (DNA, aptamer) GCGGGCGGTTGTATAGCGGTTTTTTCTCACACGAATTCATCTGAC
Description: competitive fluorescent lateral flow strip. Particulars: T-DNA competes on T line; AMP 150 and 200 ng/L; slight signal change.

The structures appear in SMILES notation.

`CN(C)[C@@H]1C(=O)C(C(N)=O)=C(O)[C@@]2(O)C(=O)C3=C(O)c4c(O)cccc4[C@@](C)(O)[C@H]3C[C@@H]12`: in assay [1] (n = 3, RSD 2.34%), the Cross-reactivity worked out at 0.67%. In assay [1] (n = 3, RSD 4.34%), `O=C(N[C@H](CO)[C@H](O)c1ccc([N+](=O)[O-])cc1)C(Cl)Cl` showed a Cross-reactivity of 6.60%. For the compound `CC1(C)S[C@@H]2[C@H](NC(=O)[C@H](N)c3ccccc3)C(=O)N2[C@H]1C(=O)O`, the binding entry in assay [1] (T-DNA (complementary strand) competes on T line, AMP 50-300 ng/L) is reported as “yes”; in assay [2] it was “weak”.

For the compound `NC[C@H]1O[C@H](O[C@H]2[C@H](O)[C@@H](O[C@H]3O[C@H](CO)[C@@H](O)[C@H](N)[C@H]3O)[C@H](N)C[C@@H]2N)[C@H](O)[C@@H](O)[C@@H]1O`, the Cross-reactivity in assay [1] (n = 3, RSD 3.89%) was 5.53%.

`CC1(C)S[C@@H]2[C@H](NC(=O)Cc3ccccc3)C(=O)N2[C@H]1C(=O)O` gave a Cross-reactivity in assay [1] (n = 3, RSD 3.56%) of 7.40%. For `CN(C)[C@@H]1C(=O)C(C(N)=O)=C(O)[C@@]2(O)C(=O)C3=C(O)c4c(O)cccc4[C@@](C)(O)[C@H]3[C@H](O)[C@@H]12`, in assay [1] (n = 3, RSD 2.76%), the Cross-reactivity was found to be 0.88%.

For the origin of these results see paper PMC7231327 (2020).
